Measured values taken from the NIST ThermoML archive (doi:10.1021/je200721d).
Numbers after ± are expanded uncertainties.

Test: xn = mol fraction of the nth substance listed
Conditions: Liquid, Vibrating tube method

CCCCCCCCCC [decane] + CCCCCC
Conditions | mass density [kg/m3]
332.93 K, 7000 kPa, x2 = 0.8991 | 643.52 ± 0.33
332.93 K, 8000 kPa, x2 = 0.8991 | 644.74 ± 0.34
332.93 K, 9000 kPa, x2 = 0.8991 | 645.94 ± 0.35
332.93 K, 10000 kPa, x2 = 0.8991 | 647.14 ± 0.36
332.93 K, 11000 kPa, x2 = 0.8991 | 648.32 ± 0.37
332.93 K, 12000 kPa, x2 = 0.8991 | 649.47 ± 0.38
332.93 K, 13000 kPa, x2 = 0.8991 | 650.61 ± 0.39
332.93 K, 14000 kPa, x2 = 0.8991 | 651.73 ± 0.4
332.93 K, 15000 kPa, x2 = 0.8991 | 652.84 ± 0.41
332.93 K, 16000 kPa, x2 = 0.8991 | 653.92 ± 0.42
332.93 K, 17000 kPa, x2 = 0.8991 | 654.97 ± 0.43
332.93 K, 18000 kPa, x2 = 0.8991 | 655.99 ± 0.44
332.93 K, 19000 kPa, x2 = 0.8991 | 657.01 ± 0.45
332.93 K, 20000 kPa, x2 = 0.8991 | 657.98 ± 0.46
332.93 K, 21000 kPa, x2 = 0.8991 | 658.93 ± 0.47
332.93 K, 22000 kPa, x2 = 0.8991 | 659.86 ± 0.48
332.93 K, 23000 kPa, x2 = 0.8991 | 660.76 ± 0.49
332.93 K, 24000 kPa, x2 = 0.8991 | 661.64 ± 0.5
332.93 K, 25000 kPa, x2 = 0.8991 | 662.49 ± 0.51
333.08 K, 1000 kPa, x2 = 0.2185 | 689.16 ± 0.26
333.08 K, 2000 kPa, x2 = 0.2185 | 690.17 ± 0.26
333.08 K, 3000 kPa, x2 = 0.2185 | 691.16 ± 0.27
333.08 K, 4000 kPa, x2 = 0.2185 | 692.16 ± 0.28
333.08 K, 5000 kPa, x2 = 0.2185 | 693.16 ± 0.29
333.08 K, 6000 kPa, x2 = 0.2185 | 694.13 ± 0.29
333.08 K, 7000 kPa, x2 = 0.2185 | 695.1 ± 0.3
333.08 K, 8000 kPa, x2 = 0.2185 | 696.06 ± 0.31
333.08 K, 9000 kPa, x2 = 0.2185 | 697.02 ± 0.32
333.08 K, 10000 kPa, x2 = 0.2185 | 697.94 ± 0.32
333.08 K, 10990 kPa, x2 = 0.2185 | 698.86 ± 0.33
333.08 K, 12000 kPa, x2 = 0.2185 | 699.77 ± 0.34
333.08 K, 13000 kPa, x2 = 0.2185 | 700.66 ± 0.35
333.08 K, 14000 kPa, x2 = 0.2185 | 701.54 ± 0.36
333.08 K, 15000 kPa, x2 = 0.2185 | 702.39 ± 0.36
333.08 K, 16000 kPa, x2 = 0.2185 | 703.25 ± 0.37
333.08 K, 17000 kPa, x2 = 0.2185 | 704.09 ± 0.38
333.08 K, 18000 kPa, x2 = 0.2185 | 704.93 ± 0.39
333.08 K, 19000 kPa, x2 = 0.2185 | 705.76 ± 0.4
333.08 K, 20000 kPa, x2 = 0.2185 | 706.56 ± 0.4
333.08 K, 21000 kPa, x2 = 0.2185 | 707.37 ± 0.41
333.08 K, 22000 kPa, x2 = 0.2185 | 708.17 ± 0.42
333.08 K, 23000 kPa, x2 = 0.2185 | 708.95 ± 0.43
333.08 K, 24000 kPa, x2 = 0.2185 | 709.72 ± 0.44
333.08 K, 25000 kPa, x2 = 0.2185 | 710.48 ± 0.45
333.1 K, 1000 kPa, x2 = 0.7524 | 650.65 ± 0.27
333.1 K, 2000 kPa, x2 = 0.7524 | 651.99 ± 0.28
333.1 K, 3000 kPa, x2 = 0.7524 | 653.29 ± 0.29
333.1 K, 4000 kPa, x2 = 0.7524 | 654.52 ± 0.3
333.1 K, 5000 kPa, x2 = 0.7524 | 655.72 ± 0.3
333.1 K, 6000 kPa, x2 = 0.7524 | 656.92 ± 0.31
333.1 K, 7000 kPa, x2 = 0.7524 | 658.07 ± 0.32
333.1 K, 8000 kPa, x2 = 0.7524 | 659.21 ± 0.33
333.1 K, 9000 kPa, x2 = 0.7524 | 660.35 ± 0.34
333.1 K, 10000 kPa, x2 = 0.7524 | 661.46 ± 0.35
333.1 K, 10990 kPa, x2 = 0.7524 | 662.52 ± 0.36
333.1 K, 12000 kPa, x2 = 0.7524 | 663.6 ± 0.37
333.1 K, 13000 kPa, x2 = 0.7524 | 664.65 ± 0.38
333.1 K, 14000 kPa, x2 = 0.7524 | 665.67 ± 0.39
333.1 K, 15000 kPa, x2 = 0.7524 | 666.7 ± 0.4
333.1 K, 16000 kPa, x2 = 0.7524 | 667.68 ± 0.4
333.1 K, 17000 kPa, x2 = 0.7524 | 668.66 ± 0.41
333.1 K, 18000 kPa, x2 = 0.7524 | 669.62 ± 0.42
333.1 K, 19000 kPa, x2 = 0.7524 | 670.59 ± 0.43
333.1 K, 20000 kPa, x2 = 0.7524 | 671.52 ± 0.44
333.1 K, 21000 kPa, x2 = 0.7524 | 672.45 ± 0.45
333.1 K, 22000 kPa, x2 = 0.7524 | 673.35 ± 0.46
333.1 K, 23000 kPa, x2 = 0.7524 | 674.23 ± 0.47
333.1 K, 24000 kPa, x2 = 0.7524 | 675.08 ± 0.48
333.1 K, 25000 kPa, x2 = 0.7524 | 675.91 ± 0.49
333.12 K, 1000 kPa, x2 = 0.0456 | 697.88 ± 0.25
333.12 K, 2000 kPa, x2 = 0.0456 | 698.9 ± 0.26
333.12 K, 3000 kPa, x2 = 0.0456 | 699.91 ± 0.27
333.12 K, 4000 kPa, x2 = 0.0456 | 700.9 ± 0.27
333.12 K, 5000 kPa, x2 = 0.0456 | 701.88 ± 0.28
333.12 K, 6000 kPa, x2 = 0.0456 | 702.84 ± 0.29
333.12 K, 7000 kPa, x2 = 0.0456 | 703.78 ± 0.3
333.12 K, 8000 kPa, x2 = 0.0456 | 704.71 ± 0.3
333.12 K, 9000 kPa, x2 = 0.0456 | 705.63 ± 0.31
333.12 K, 10000 kPa, x2 = 0.0456 | 706.54 ± 0.32
333.12 K, 10990 kPa, x2 = 0.0456 | 707.42 ± 0.32
333.12 K, 12000 kPa, x2 = 0.0456 | 708.3 ± 0.33
333.12 K, 13000 kPa, x2 = 0.0456 | 709.16 ± 0.34
333.12 K, 14000 kPa, x2 = 0.0456 | 710.01 ± 0.35
333.12 K, 15000 kPa, x2 = 0.0456 | 710.86 ± 0.36
333.12 K, 16000 kPa, x2 = 0.0456 | 711.67 ± 0.36
333.12 K, 17000 kPa, x2 = 0.0456 | 712.48 ± 0.37
333.12 K, 18000 kPa, x2 = 0.0456 | 713.29 ± 0.38
333.12 K, 19000 kPa, x2 = 0.0456 | 714.08 ± 0.39
333.12 K, 20000 kPa, x2 = 0.0456 | 714.87 ± 0.39
333.12 K, 21000 kPa, x2 = 0.0456 | 715.64 ± 0.4
333.12 K, 22000 kPa, x2 = 0.0456 | 716.39 ± 0.41
333.12 K, 23000 kPa, x2 = 0.0456 | 717.15 ± 0.42
333.12 K, 24000 kPa, x2 = 0.0456 | 717.89 ± 0.43
333.12 K, 25000 kPa, x2 = 0.0456 | 718.63 ± 0.43
